Laboratory results as given in patent US12569459B2, “Compositions and methods for treating pulmonary edema or lung inflammation” (priority 2020, dated 2026).

Legend:
Akt = Akt phosphorylation in RLE-6TN cells under hyperoxia; format: cell-based, rat; conditions: 24 hours hyperoxia, T3 added for 20 minutes; vs room air control and hyperoxia alone
Procedure: (§1) The cells were lysed in lysis buffer containing 20 mM Tris HCl (pH 7.5), 150 mM NaCl, 1 mM EDTA, 1 mM EGTA, 1% (vol/vol) Triton X-100 with protease inhibitors (1 mM PMSF, 2 μg/ml pepstatin, and 10 μg/ml each of aprotinin and leupeptin), and phosphatase inhibitors (2.5 mM sodium pyrophosphate, 1 mM β-glycerophosphate, and 1 mM Na3VO4). The lysate was drawn 10 times through a 25-gauge needle on ice for further lysis and then was centrifuged at 13,000 rpm for 15 minutes at 4° C. The supernatant was collected, and the protein concentrations were determined by use of the BCA protein assay kit (Sigma-Aldrich, St. Louis, MO). Immediately after this step, equal amounts of protein were subjected to Western blotting analysis.

HO-1 = test: Western blot of HO-1 protein in RLE-6TN cells under hyperoxia; format: cell-based, rat; conditions: T3 10^−6 M
Procedure: FIG. 10. HO-1 Upregulation is required for T3-increased RLE-6TN cell survival in hyperoxia. […] The cells were then collected for Western Blot analysis. (B) The cells were incubated in 21% O2 and 5% CO2 for 72 hours in the present of HO-1 inhibitor Tin Protoporphyrin IX(10^−6 M) tinT3 (10^−6 M). […] Cell viability is assessed with trypan blue. The number of viable cells under specific conditions is presented as a percentage of the cell number related to hyperoxia alone. Data are mean±s.d. of three independent experiments with *=P<0.05; **=P<0.01.
At the end of the hyperoxia exposure period, the viable cells were counted by trypan blue dye exclusion.
as §1

[1] = system: intubated patients with ARDS; test: Phase I/II trial of instilled T3: safety and clinical course; format: in vivo, human
Excerpt: Ten milliliters (mls) of reformulated, pH-adjusted commercial intravenous T3 solution (Par Pharmaceutical, Navi Mumbai, India; and XGen Pharmaceuticals DJB, Inc., Horseheads, NY) was instilled directly into the airspaces via a suction catheter in the endotracheal tube of intubated patients with ARDS. […] The study was approved by the Essentia IRB (Duluth, MN) and listed on ClinicalTrials.gov (NCT04115514).
Subsequent doses were given on days 4, 6, and 7. […] Despite Klebsiella aerogenes positive sputum culture, they were extubated on ventilator day 11. After discharge from the ICU, they had some confusion and delirium.

[2] = GLP toxicity phase: intratracheal instillation once daily for five days; format: in vivo, Sprague-Dawley rats; conditions: for Body weight: female rats, at terminal euthanasia vs pre-dose
Procedure: Safety studies are described in Example 3, below. In a safety study conducted in compliance with Good Laboratory Practices (GLPs), 0.3 mL (300 μl) was administered to rats weighing 250-350 grams via intratracheal instillation daily for five consecutive days. […] The calculated dose based on lung weight was about 1.57 μg/g wet lung weight.
This study was conducted using both male and female Sprague-Dawley rats (Envigo, Huntingdon, United Kingdom). Evaluation of the safety of the tracheal route of instillation for liothyronine sodium injection in human clinical trials can be accomplished in this species at appropriate dose levels. Furthermore, responses to thyroid hormone in rats are similar to responses in humans, and the choice of the rat model is based in large part on pharmacologic data from studies of thyroid hormone and associated receptors and physiological responses in rat lung. The University of Minnesota is accredited by the Association for the Assessment and Accreditation of Laboratory Animal Care, International (AAALAC) and registered with the United States Department of Agriculture to conduct research in laboratory animals. Animal studies conformed to NIH guidelines (Guide for the Care and Use of Laboratory Animals. NIH publication No. 86-23. Revised 1985). The protocol was reviewed and approved, as applicable, by the Institutional Animal Care and Use Committee (IACUC) at the University of Minnesota for compliance with regulations prior to study initiation or implementation of amended activities.
Sixty animals (plus two spare animals/sex/group) were anesthetized and dosed via intratracheal instillation of test or control materials for five consecutive days. On the day after the last dose a terminal blood collection was performed for clinical pathology, after which animals were euthanized and a gross examination of all organs was performed by a board-certified veterinary pathologist. Select tissues were collected for histopathology. […] Terminal blood collection was performed at two designated time points per animal up to 24 hours after administration for toxicokinetic evaluation. TK animals were euthanized without further evaluation after the final blood collection. All animals were acclimated for a minimum of seven days prior to the dosing procedure. Animals underwent baseline observations and examinations prior to the initiation of the study, and clinical observations and body weight monitoring were performed throughout the in-life portion of the study. All animals received the same dose volume (0.3 mL) of either test or control materials. This maximum feasible dose (MFD) is constrained by the maximum volume that can be safely and reproducibly (over five days) instilled into lungs of rats weighing 250 g to 350 g, which was determined in preliminary toxicology studies to be 0.3 mL. Actual doses delivered are reported as both μg/kg body weight and μg/gm wet lung weight. The toxicity phase animals were 72-135 days of age at the time of initial dosing. Males weighed between 256.52 g and 307.50 g with a mean±standard deviation of 286.74±11.77 g, and females weighed between 250.46 g and 299.01 g with a mean±standard deviation of 260.64±10.34 g. The TK phase animals were 68-144 days of age at the time of initial dosing. Males weighed between 261.23 g and 316.19 g; females weighed between 250.06 g and 280.32 g.
Test and control materials were drawn into dosing syringes using aseptic technique. Using a 18G needle, 0.5 mL of air was drawn into a 1 cc syringe followed by 0.3 mL (300 μL) of the solutions. Animals were anesthetized with a combination of ketamine, 40 mg/kg to 200 mg/kg, and xylazine, 1 mg/kg to 7 mg/kg intraperitoneally (IP), to effect. The dose was adjusted daily, as needed, based on individual animal response and recovery. Depth of anesthesia was evaluated by toe pinch, and eye lubricant was applied to the eyes. […]

[3] = single oral dose of 50 micrograms; cited from earlier work
[4] = Preliminary dose-finding studies, intravenous vs intratracheal 3.0 μg neutral pH T3; format: in vivo, rats
Procedure: FIG. 6. […] A single dose of T3 was administered intravenously (diamonds) or via intratracheal instillation (squares). Samples were analyzed for total T3 using a chemiluminescence assay.

[5] = females, 1 day after fifth dose
[6] = 3.0 μg T3 intratracheally vs 3.0 μg intravenously

## N[C@@H](Cc1cc(I)c(Oc2ccc(O)c(I)c2)c(I)c1)C(=O)O [T3, triiodothyronine]
Akt
  Phosphorylation of Akt at Ser473: augmented phosphorylation of Akt at Ser473
HO-1
  Total cellular HO-1 protein: significantly enhanced total cellular protein of HO-1
[1]; Patient 1, 60 days
  Follow-up status: normal complete pulmonary function tests (PFTs) and chest radiograph at 60 days
[1]; Patient 1, four 50 μg doses from day 3
  Ventilator day of extubation: 11
[1]; Patient 2
  Tolerability of instillation: tolerated each installation without apparent adverse side effects
[1]; Patient 2, 60-day clinic follow up
  Follow-up status: asymptomatic with normal lung exam, chest radiograph and PFTs
[1]; Patient 2, escalating doses from ventilator day 3
  Ventilator day of extubation: 20
[1]; Patient 2, previously deteriorating
  Oxygenation: stabilized over the four treatment days
[1]; Patients 1 and 2
  Adverse pulmonary or systemic events ascribed to T3 instillation: Neither patient had significant adverse pulmonary or systemic events
  Vasopressor dose required to maintain mean arterial pressure: decreased in temporal association with the T3 instillation
[2]; all toxicity phase animals
  Gross pathology at necropsy: No evidence of toxicity was observed grossly
[2]; during the study
  Clinical observations: No adverse T3 related clinical observations were observed
[2]; end organs examined
  Treatment-related macroscopic or microscopic findings: no macroscopic or microscopic findings in any of the end organs examined
[2]; toxicity phase
  Body weight: weighed slightly less than their pre-dose weight
[2]; toxicity phase, listed as liothyronine sodium
  Body weight: did not regain body weight at the same rate as males or as in control groups
[2]; [5]
  Hematology vs control groups: mildly increased reticulocyte count and degree of polychromasia
  Serum chemistry vs control groups: slight statistical difference in the mean albumin concentration
[2]; five days intratracheal instillation
  Organ weight of the lungs: no differences in the organ weight of the lungs
[2]; males, 1 day after fifth dose
  Hematology parameters vs control groups: no statistical or clinically significant changes
  Serum chemistry vs control groups: slight difference in the mean globulin level
[2]; toxicity phase, T3 group, ascribed to colon impaction and instillation procedure
  Deaths after dose administration: two T3 test animals that died after dose administration
[2]; ~2.7 μg in 0.3 mL intratracheally daily for five consecutive days
  Complications or changes (histopathologic, physiologic, laboratory value assessments): No significant complications or changes were observed
[3]
  Time of peak serum concentration: 2.5 h
  Time of physiologic effect of increased heart rate: five hours
[4]; [6]
  AUC after intratracheal relative to intravenous administration: ⅕
  T3 Cmax after intratracheal relative to intravenous administration: 1/17
[4]; single intravenous delivery or five days of intratracheal delivery of 3.0 μg neutral pH T3
  Acute effects on physiologic parameters (respiratory rate, O2 saturation, heart rate): no acute effects on physiologic parameters
